Laboratory results from article PMC11200585, “Prospects for Prostate Cancer Chemotherapy: Cytotoxic Evaluation and Mechanistic Insights of Quinolinequinones with ADME/PK Profile” (Biomedicines, 2024).

Experiments:
Type in all cases: cell-based, human
EKVX [1] = assay: NCI-60 five-dose assay (non-small cell lung cancer); conditions: 48 h, SRB
SF-539 = assay: NCI-60 five-dose assay (CNS cancer); conditions: 48 h, SRB
NCI-H322M [2] = assay: NCI-60 five-dose assay (non-small cell lung cancer); conditions: 48 h, SRB
T-47D = assay: NCI-60 five-dose assay (breast cancer); conditions: 48 h, SRB
HOP-62 = assay: NCI-60 one-dose screen (non-small cell lung cancer); conditions: 10 µM single dose
Procedure: (§1) The obtained quinolinequinones were submitted to NCI, Bethesda, USA, and, as per standard protocol of NCI, all compounds were evaluated for their antiproliferative activity at single-dose assay (10 µM concentration in DMSO) on a panel of 60 cancer cell lines derived from leukemia, non-small-cell lung, colon, CNS, melanoma, ovarian, renal, prostate, and breast, as per protocol. Tested compounds were added to the microtiter culture plates followed by incubation for 48 h at 37 °C. Sulforhodamine B (SRB), a protein-binding dye, is used for endpoint determination. The percent of the growth of the treated cells was determined in comparison to the untreated control cells and the results of each tested compound were reported. Data from one-dose experiments pertain to the percentage growth at 10 μM [16, 17, 18].

NCI-H23 = assay: as above; conditions: 10 µM single dose, 48 h
Procedure: as §1

NCI-H322M [3] = assay: as above; conditions: 10 µM single dose, 48 h
Procedure: as §1

HOP-92 = assay: as above; conditions: 10 µM single dose, 48 h
Procedure: as §1

NCI-H226 = assay: as above; conditions: 10 µM single dose, 48 h
Procedure: as §1

NCI-H460 [4] = assay: as above; conditions: 10 µM single dose
Procedure: as §1

NCI-H522 = assay: as above; conditions: 10 µM single dose, 48 h
Procedure: as §1

EKVX [5] = assay: as above; conditions: 10 µM single dose, 48 h
Procedure: as §1

A549/ATCC = assay: as above; conditions: 10 µM single dose, 48 h
Procedure: as §1

MALME-3M = assay: NCI-60 five-dose assay (melanoma); conditions: 48 h, SRB
A498 = assay: NCI-60 five-dose assay (renal cancer); conditions: 48 h, SRB
SK-OV-3 = assay: NCI-60 five-dose assay (ovarian cancer); conditions: 48 h, SRB
SK-MEL-28 = assay: NCI-60 five-dose assay (melanoma); conditions: 48 h, SRB
OVCAR-5 = assay: NCI-60 five-dose assay (ovarian cancer); conditions: 48 h, SRB
MOLT-4 [6] = assay: NCI-60 one-dose screen (leukemia); conditions: 10 µM single dose
Procedure: as §1

CCRF-CEM = assay: NCI-60 one-dose screen (leukemia); conditions: 10 µM single dose
Procedure: as §1

HL-60(TB) = assay: NCI-60 one-dose screen (leukemia); conditions: 10 µM single dose, 48 h
Procedure: as §1

K-562 = assay: NCI-60 one-dose screen (leukemia)
Procedure: as §1

RPMI-8226 = assay: NCI-60 one-dose screen (leukemia); conditions: 10 µM single dose, 48 h
Procedure: as §1

SR = assay: NCI-60 one-dose screen (leukemia); conditions: 10 µM single dose, 48 h
Procedure: as §1

UO-31 = assay: NCI-60 five-dose assay (renal cancer); conditions: 48 h, SRB
HCT-116 = assay: NCI-60 five-dose assay (colon cancer); conditions: 48 h, SRB
SNB-19 = assay: NCI-60 five-dose assay (CNS cancer); conditions: 48 h, SRB
NCI/ADR-RES = assay: NCI-60 five-dose assay (ovarian cancer); conditions: 48 h, SRB
ACHN = assay: NCI-60 five-dose assay (renal cancer); conditions: 48 h, SRB
NCI-H460 [7] = assay: NCI-60 five-dose assay (non-small cell lung cancer); conditions: 48 h, SRB
DU-145 = assay: NCI-60 one-dose screen (prostate cancer); conditions: 10 µM single dose, 48 h
Procedure: as §1

PC-3 [8] = assay: NCI-60 one-dose screen (prostate cancer); conditions: 10 µM single dose
Procedure: as §1

SW-620 = assay: NCI-60 five-dose assay (colon cancer); conditions: 48 h, SRB
MOLT-4 [9] = assay: NCI-60 five-dose assay (leukemia); conditions: 48 h, SRB
PC-3 [10] = assay: NCI-60 five-dose assay (prostate cancer); conditions: 48 h, SRB
UACC-257 = assay: NCI-60 five-dose assay (melanoma); conditions: 48 h, SRB
[11] = Homo sapiens, read-out: LC50 (the source's name)

COc1cc(NC2=C(Cl)C(=O)c3nc(C)ccc3C2=O)cc(OC)c1 [AQQ5]
TGI (EKVX [1]): 3.12 µM | GI50 (EKVX [1]; Homo sapiens): 1.6 µM | CC50 (EKVX [1]; [11]): 6.08 µM | TGI (SF-539): 3.22 µM | GI50 (SF-539; Homo sapiens): 1.79 µM | LC50 (SF-539; Homo sapiens): 5.78 µM | TGI (NCI-H322M [2]): 12.8 µM | GI50 (NCI-H322M [2]; Homo sapiens): 3.42 µM | CC50 (NCI-H322M [2]; [11]): 35.8 µM | TGI (T-47D): 3.62 µM | GI50 (T-47D; Homo sapiens, T47D): 1.5 µM | CC50 (T-47D; Homo sapiens, T47D, read-out: LC50 (the source's name)): 8.74 µM | GP (growth percentage) (HOP-62; 48 h): 0.85% | inhibition at 10 µM (HOP-62; Homo sapiens): 99.2% | GP (growth percentage) (NCI-H23): −55.61% | GP (growth percentage) (NCI-H322M [3]): 89.75% | GP (growth percentage) (HOP-92): −12.23% | GP (growth percentage) (NCI-H226): 68.59% | GP (growth percentage) (NCI-H460 [4]; 48 h): 2.02% | inhibition at 10 µM (NCI-H460 [4]; Homo sapiens): 98% | GP (growth percentage) (NCI-H522): −80.61% | GP (growth percentage) (EKVX [5]): 74.66% | GP (growth percentage) (A549/ATCC): 42.41% | TGI (MALME-3M): 3.28 µM | GI50 (MALME-3M; Homo sapiens): 1.76 µM | LC50 (MALME-3M; Homo sapiens): 6.11 µM | TGI (A498): 11.4 µM | GI50 (A498; Homo sapiens): 2.35 µM | LC50 (A498; Homo sapiens): 33.8 µM | TGI (SK-OV-3): 25.1 µM | GI50 (SK-OV-3; Homo sapiens): 12.6 µM | LC50 (50% net cell kill) (SK-OV-3; Homo sapiens): 50.1 µM | TGI (SK-MEL-28): 3.23 µM | GI50 (SK-MEL-28; Homo sapiens): 1.79 µM | LC50 (SK-MEL-28; Homo sapiens): 5.85 µM | TGI (OVCAR-5): 5.79 µM | GI50 (OVCAR-5; Homo sapiens): 2.38 µM | LC50 (lethal concentration 50%) (OVCAR-5; Homo sapiens): 23.7 µM | GP (growth percentage) (MOLT-4 [6]; 48 h): 8.29% | inhibition at 10 µM (MOLT-4 [6]; Homo sapiens): 91.7% | GP (growth percentage) (CCRF-CEM; 48 h): 2.72% | inhibition at 10 µM (CCRF-CEM; Homo sapiens): 97.3% | GP (growth percentage) (HL-60(TB)): −13.44% | GP (growth percentage) (K-562; 10 µM single dose, 48 h): 4.73% | inhibition at 10 µM (K-562; Homo sapiens, K562, 10 µM single dose): 95.3% | GP (growth percentage) (RPMI-8226): −39.66% | GP (growth percentage) (SR): −3.19% | TGI (UO-31): 3.06 µM | GI50 (UO-31; Homo sapiens): 1.69 µM | LC50 (lethal concentration 50%) (UO-31; Homo sapiens): 5.53 µM | TGI (HCT-116): 2.88 µM | GI50 (HCT-116; Homo sapiens): 1.53 µM | LC50 (HCT-116; Homo sapiens): 5.45 µM | TGI (SNB-19): 18.8 µM | GI50 (SNB-19; Homo sapiens): 5.82 µM | CC50 (SNB-19; [11]): 44.2 µM | TGI (NCI/ADR-RES): 4.47 µM | GI50 (NCI/ADR-RES; Homo sapiens): 1.81 µM | CC50 (NCI/ADR-RES; [11]): 21.7 µM | TGI (ACHN): 3.04 µM | GI50 (ACHN; Homo sapiens): 1.67 µM | LC50 (ACHN; Homo sapiens): 5.51 µM | TGI (NCI-H460 [7]): 8.07 µM | GI50 (NCI-H460 [7]; Homo sapiens): 2.68 µM | CC50 (NCI-H460 [7]; [11]): 82.6 µM | GP (growth percentage) (DU-145): −92.99% | GP (growth percentage) (PC-3 [8]; 48 h): 27.99% | inhibition at 10 µM (PC-3 [8]; Homo sapiens): 72% | TGI (SW-620): 3.47 µM | GI50 (SW-620; Homo sapiens): 1.76 µM | LC50 (SW-620; Homo sapiens): 6.85 µM | TGI (MOLT-4 [9]): 7.00 µM | GI50 (MOLT-4 [9]; Homo sapiens): 1.5 µM | LC50 (MOLT-4 [9]; Homo sapiens): > 100 µM | TGI (PC-3 [10]): 10.4 µM | GI50 (PC-3 [10]; Homo sapiens): 2.56 µM | CC50 (PC-3 [10]; [11]): 43.6 µM | TGI (UACC-257): 2.85 µM | GI50 (UACC-257; Homo sapiens): 1.51 µM | LC50 (NCI-60 lethal concentration, 50% cell kill) (UACC-257; Homo sapiens): 5.37 µM
